Key:
[1] = Thermogravimetric analysis (TGA) thermal stability under N2; format: physicochemical; settings: 25 to 900° C.
Experimental: Characterization. […] Thermogravimetric analysis (TGA) thermograms were prepared in the range of 20-900° C. at a temperature rate of 10° C. min^−1 under N2 flow, using a TA Q100 instrument.

NAD^+ = settings: NR taken as a supplement; cited from earlier work
[2] = Stability of NRH and NR aqueous solutions over 60 days of storage, remaining concentration by HPLC; settings: aqueous solution, atmosphere not stated

| temperature of greatest weight loss (TGA) ([1]; 10° C. min^−1, N2 atmosphere) [°C] | degradation ([2]; 4° C., 60 days) | degradation ([2]; 25° C., 30 days) [%] | degradation ([2]; 25° C., 60 days) [%] | weight loss at the temperature of greatest weight loss (TGA) ([1]; N2 atmosphere) | SMILES | boost of the level of NAD^+ (NAD^+) [%] |
| --- | --- | --- | --- | --- | --- | --- |
| ~910 | no detectable degradation | 48 | 68 | – | NC(=O)c1ccc[n+]([C@@H]2O[C@H](CO)[C@@H](O)[C@H]2O)c1 [NR, nicotinamide riboside] | 60 |
| – | – | – | – | around 65% | NC(=O)c1ccc[n+]([C@@H]2O[C@H](CO)[C@@H](O)[C@H]2O)c1.[Cl-] [NRCl, nicotinamide riboside chloride] | – |

Source: patent US20230271995A1, “METHODS FOR PRODUCING DIHYDRONICOTINAMIDE RIBOSIDE FROM NICOTINAMIDE RIBOSIDE CHLORIDE” (SOCIETE DES PRODUITS NESTLE S.A., priority 2020, published 2023)
